Patent publication US8435978B2, “Substituted sulfonamide compounds” (Gruenenthal GmbH, priority 2006, dated 2013)

Assays:
human B1R receptor = biological target: T1, human B1R receptor (Homo sapiens, UniProt P46663); assay: Functional study on the bradykinin receptor 1 (B1R), FLIPR Ca2+ assay, hB1R cells; assay type: cell-based; conditions: agonist Lys-Des-Arg9-bradykinin 0.5 nM, % inhibition compared with the maximum achievable inhibition; for inhibition at 10 µM: CHO-K1, test substance 10 μM, read-out: B1R Antagonism, human [10 μM] % Inhibition
T1 construct: host or cells: CHO K1 cells (Chinese hamster ovary), stably transfected
T1 sequence (P46663 1-353): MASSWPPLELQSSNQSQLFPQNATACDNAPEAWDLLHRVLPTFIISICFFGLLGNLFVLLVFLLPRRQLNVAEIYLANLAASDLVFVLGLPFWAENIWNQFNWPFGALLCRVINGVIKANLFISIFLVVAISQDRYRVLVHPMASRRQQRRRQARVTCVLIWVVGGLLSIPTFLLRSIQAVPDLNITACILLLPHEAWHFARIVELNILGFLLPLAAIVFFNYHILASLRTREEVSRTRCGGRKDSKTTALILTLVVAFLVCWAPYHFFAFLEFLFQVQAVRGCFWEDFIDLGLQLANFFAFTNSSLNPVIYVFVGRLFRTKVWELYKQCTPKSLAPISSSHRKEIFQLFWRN
Outline: (§1)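 FLIPR Ca2+ read-out (Fluo-4, peak fluorescence) in stably transfected CHO K1 cells. Compounds at 10 μM, then 10 min later agonist challenge: human B1R with Lys-Des-Arg9-bradykinin 0.5 nM, rat B1R with Des-Arg9-bradykinin 100 nM; reported as % activation or % of maximal inhibition.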

B1R receptor of the rat = biological target: T2, B1R receptor of the rat (Rattus norvegicus, UniProt P97583); assay: Functional study on the bradykinin receptor 1 (B1R), FLIPR Ca2+ assay, rB1R cells; assay type: cell-based; conditions: agonist Des-Arg9-bradykinin 100 nM, % inhibition compared with the maximum achievable inhibition; for inhibition at 10 µM: CHO-K1, test substance 10 μM, read-out: B1R Antagonism, rat [10 μM] % Inhibition
T2 construct: host or cells: CHO K1 cells (Chinese hamster ovary), stably transfected
T2 sequence (P97583 1-337): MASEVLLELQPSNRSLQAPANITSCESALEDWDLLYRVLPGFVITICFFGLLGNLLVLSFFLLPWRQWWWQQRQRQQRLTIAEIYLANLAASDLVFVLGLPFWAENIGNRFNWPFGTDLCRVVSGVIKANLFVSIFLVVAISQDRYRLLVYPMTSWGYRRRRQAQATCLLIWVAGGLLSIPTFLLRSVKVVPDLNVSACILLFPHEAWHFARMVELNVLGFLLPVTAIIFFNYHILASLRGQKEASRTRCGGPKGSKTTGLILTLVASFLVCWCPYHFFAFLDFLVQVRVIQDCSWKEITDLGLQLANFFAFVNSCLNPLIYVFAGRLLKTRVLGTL
Outline: as §1

Row | inhibition at 10 µM (human B1R receptor) [%] | inhibition at 10 µM (B1R receptor of the rat) [%] | B1R Antagonism, human [10 μM] % Inhibition (human B1R receptor; test substance 10 μM, hB1R CHO K1 cells) [%] | B1R Antagonism, rat [10 μM] % Inhibition (B1R receptor of the rat; test substance 10 μM, rB1R CHO K1 cells) [%] | Compound
1 | 24.2 | 90.6 | – | – | COc1cc(C)c(S(=O)(=O)N2CCCC2COCC(=O)Nc2nc3ccccc3n2C)c(C)c1 (stereo not drawn) [Example 504, 2-((1-(4-methoxy-2,6-dimethylphenylsulfonyl)pyrrolidin-2-yl)methoxy)-N-(1-methyl-1H-benzo[d]imidazol-2-yl)acetamide]
2 | 74 | 101 | – | – | COc1cc(C)c(S(=O)(=O)N2CCCC2COCC(=O)NC(CN2CCCC2)c2ccccc2)c(C)c1 (stereo not drawn) [Example 505, 2-((1-(4-methoxy-2,6-dimethylphenylsulfonyl)pyrrolidin-2-yl)methoxy)-N-(1-phenyl-2-(pyrrolidin-1-yl)ethyl)acetamide]
3 | 98.3 | 98.9 | – | – | N#CCCN1CCN(C(=O)COCC2CCCCN2S(=O)(=O)c2c(Cl)cccc2Cl)CC1 (stereo not drawn) [Example 506, 3-(4-(2-((1-(2,6-dichlorophenylsulfonyl)piperidin-2-yl)methoxy)acetyl)piperazin-1-yl)propanenitrile]
4 | -10.1 | 102 | – | – | COc1cc(C)c(S(=O)(=O)N2CCCCC2COCC(=O)N(Cc2ccccc2)c2cc(C)ccn2)c(C)c1 (stereo not drawn) [Example 507, N-benzyl-2-((1-(4-methoxy-2,6-dimethylphenylsulfonyl)piperidin-2-yl)methoxy)-N-(4-methylpyridin-2-yl)acetamide]
5 | 31.9 | 103 | – | – | COc1cc(C)c(S(=O)(=O)N2CCCCC2COCC(=O)N(Cc2ccccc2)c2cccc(C)n2)c(C)c1 (stereo not drawn) [Example 508, N-benzyl-2-((1-(4-methoxy-2,6-dimethylphenylsulfonyl)piperidin-2-yl)methoxy)-N-(6-methylpyridin-2-yl)acetamide]
6 | 92.7 | 102 | – | – | COc1cc(C)c(S(=O)(=O)N2CCCCC2COCC(=O)N2CCN(c3cccc(C(F)(F)F)c3)CC2)c(C)c1 (stereo not drawn) [Example 509, 2-((1-(4-methoxy-2,6-dimethylphenylsulfonyl)piperidin-2-yl)methoxy)-1-(4-(3-(trifluoromethyl)phenyl)piperazin-1-yl)ethanone]
7 | 51.4 | 102 | – | – | CCN(Cc1ccncc1)C(=O)COCC1CCCCN1S(=O)(=O)c1c(C)cc(OC)cc1C (stereo not drawn) [Example 510, N-ethyl-2-((1-(4-methoxy-2,6-dimethylphenylsulfonyl)piperidin-2-yl)methoxy)-N-(pyridin-4-ylmethyl)acetamide]
8 | 87 | 103 | – | – | COc1cc(C)c(S(=O)(=O)N2CCCCC2COCC(=O)N2CCN(c3cccc(Cl)c3)CC2)c(C)c1 (stereo not drawn) [Example 511, 1-(4-(3-chlorophenyl)piperazin-1-yl)-2-((1-(4-methoxy-2,6-dimethylphenylsulfonyl)piperidin-2-yl)methoxy)ethanone]
9 | 93 | 102 | – | – | COc1cc(C)c(S(=O)(=O)N2CCCCC2COCC(=O)N2CCN(c3ccc(C)c(C)c3)CC2)c(C)c1 (stereo not drawn) [Example 512, 1-(4-(3,4-dimethylphenyl)piperazin-1-yl)-2-((1-(4-methoxy-2,6-dimethylphenylsulfonyl)piperidin-2-yl)methoxy)ethanone]
10 | 73.5 | 101 | – | – | COc1cc(C)c(S(=O)(=O)N2CCCCC2COCC(=O)N2CCN(c3ncccc3C#N)CC2)c(C)c1 (stereo not drawn) [Example 513, 2-(4-(2-((1-(4-methoxy-2,6-dimethylphenylsulfonyl)piperidin-2-yl)methoxy)acetyl)piperazin-1-yl)nicotinonitrile]
11 | 85.2 | 99 | – | – | COc1cc(C)c(S(=O)(=O)N2CCCCC2COCC(=O)N2CCN(c3ccc(C(F)(F)F)cn3)CC2)c(C)c1 (stereo not drawn) [Example 514, 2-((1-(4-methoxy-2,6-dimethylphenylsulfonyl)piperidin-2-yl)methoxy)-1-(4-(5-(trifluoromethyl)pyridin-2-yl)piperazin-1-yl)ethanone]
12 | 30.9 | 100 | – | – | Cc1cccc(N(Cc2ccccc2)C(=O)COCC2CCCCN2S(=O)(=O)c2cc(Cl)sc2Cl)n1 (stereo not drawn) [Example 515, N-benzyl-2-((1-(2,5-dichlorothiophen-3-ylsulfonyl)piperidin-2-yl)methoxy)-N-(6-methylpyridin-2-yl)acetamide]
13 | 101 | 99.4 | – | – | COc1cc(C)c(S(=O)(=O)N2CCCC2COCC(=O)N2CCN(c3ccccc3F)CC2)c(C)c1 (stereo not drawn) [Example 516, 1-(4-(2-fluorophenyl)piperazin-1-yl)-2-((1-(4-methoxy-2,6-dimethylphenylsulfonyl)pyrrolidin-2-yl)methoxy)ethanone]
14 | 98.8 | 102 | – | – | CCN1CCN(C(=O)COCC2CCCN2S(=O)(=O)c2c(C)cc(OC)cc2C)CC1 (stereo not drawn) [Example 517, 1-(4-ethylpiperazin-1-yl)-2-((1-(4-methoxy-2,6-dimethylphenylsulfonyl)pyrrolidin-2-yl)methoxy)ethanone]
15 | 103 | 99.7 | – | – | COc1cc(C)c(S(=O)(=O)N2CCCC2COCC(=O)N2CCC(N3CCCC3)CC2)c(C)c1 (stereo not drawn) [Example 518, 2-((1-(4-methoxy-2,6-dimethylphenylsulfonyl)pyrrolidin-2-yl)methoxy)-1-(4-(pyrrolidin-1-yl)piperidin-1-yl)ethanone]
16 | 81.9 | 103 | – | – | COc1cc(C)c(S(=O)(=O)N2CCCC2COCC(=O)N2CCC(N3CCOCC3)CC2)c(C)c1 (stereo not drawn) [Example 519, 2-((1-(4-methoxy-2,6-dimethylphenylsulfonyl)pyrrolidin-2-yl)methoxy)-1-(4-morpholinopiperidin-1-yl)ethanone]
17 | 103 | 102 | – | – | COc1cc(C)c(S(=O)(=O)N2CCCC2COCC(=O)N2CCC(N3CCCCC3)CC2)c(C)c1 (stereo not drawn) [Example 520, 1-(1,4′-bipiperidin-1′-yl)-2-((1-(4-methoxy-2,6-dimethylphenylsulfonyl)pyrrolidin-2-yl)methoxy)ethanone]
18 | 85.2 | 99.3 | – | – | COc1cc(C)c(S(=O)(=O)N2CCCC2COCC(=O)NCCCN2CCN(Cc3ccccc3)CC2)c(C)c1 (stereo not drawn) [Example 521, N-(3-(4-benzylpiperazin-1-yl)propyl)-2-((1-(4-methoxy-2,6-dimethylphenylsulfonyl)pyrrolidin-2-yl)methoxy)acetamide]
19 | 54.2 | 98.7 | – | – | COc1cc(C)c(S(=O)(=O)N2CCCC2COCC(=O)NCCCN2CCCCC2)c(C)c1 (stereo not drawn) [Example 522, 2-((1-(4-methoxy-2,6-dimethylphenylsulfonyl)pyrrolidin-2-yl)methoxy)-N-(3-(piperidin-1-yl)propyl)acetamide]
20 | 66.4 | 101 | – | – | COc1cc(C)c(S(=O)(=O)N2CCCC2COCC(=O)NCCCCN2CCCC2)c(C)c1 (stereo not drawn) [Example 523, 2-((1-(4-methoxy-2,6-dimethylphenylsulfonyl)pyrrolidin-2-yl)methoxy)-N-(4-(pyrrolidin-1-yl)butyl)acetamide]
21 | – | – | 101.62 | 100.66 | COc1cc(C)c(S(=O)(=O)N2CCCCC2COCC(=O)N2CCC(N3CCN(C)CC3)CC2)c(C)c1 (stereo not drawn) [Example 524, 2-((1-(4-methoxy-2,6-dimethylphenylsulfonyl)piperidin-2-yl)methoxy)-1-(4-(4-methylpiperazin-1-yl)piperidin-1-yl)ethanone]
22 | 73.3 | 102 | – | – | COc1cc(C)c(S(=O)(=O)N2CCCCC2COCC(=O)N2CCN(c3nc4ccccc4s3)CC2)c(C)c1 (stereo not drawn) [Example 526, 1-(4-(benzo[d]thiazol-2-yl)piperazin-1-yl)-2-((1-(4-methoxy-2,6-dimethylphenylsulfonyl)piperidin-2-yl)methoxy)ethanone]
23 | 97.2 | 97.3 | – | – | Cc1nccn1-c1ccc(NC(=O)COCC2CCCCN2S(=O)(=O)c2c(Cl)cccc2Cl)cc1 (stereo not drawn) [Example 527, 2-((1-(2,6-dichlorophenylsulfonyl)piperidin-2-yl)methoxy)-N-(4-(2-methyl-1H-imidazol-1-yl)phenyl)acetamide]
24 | 88.2 | 102 | – | – | CN(C)c1ccc(C2CCCN2C(=O)COCC2CCCCN2S(=O)(=O)c2c(Cl)cccc2Cl)cc1 (stereo not drawn) [Example 528, 2-((1-(2,6-dichlorophenylsulfonyl)piperidin-2-yl)methoxy)-1-(2-(4-(dimethylamino)phenyl)pyrrolidin-1-yl)ethanone]
